T1: Solute carrier organic anion transporter family member 1B1 (Homo sapiens, UniProt Q9Y6L6)
T1 sequence (Q9Y6L6 whole entry): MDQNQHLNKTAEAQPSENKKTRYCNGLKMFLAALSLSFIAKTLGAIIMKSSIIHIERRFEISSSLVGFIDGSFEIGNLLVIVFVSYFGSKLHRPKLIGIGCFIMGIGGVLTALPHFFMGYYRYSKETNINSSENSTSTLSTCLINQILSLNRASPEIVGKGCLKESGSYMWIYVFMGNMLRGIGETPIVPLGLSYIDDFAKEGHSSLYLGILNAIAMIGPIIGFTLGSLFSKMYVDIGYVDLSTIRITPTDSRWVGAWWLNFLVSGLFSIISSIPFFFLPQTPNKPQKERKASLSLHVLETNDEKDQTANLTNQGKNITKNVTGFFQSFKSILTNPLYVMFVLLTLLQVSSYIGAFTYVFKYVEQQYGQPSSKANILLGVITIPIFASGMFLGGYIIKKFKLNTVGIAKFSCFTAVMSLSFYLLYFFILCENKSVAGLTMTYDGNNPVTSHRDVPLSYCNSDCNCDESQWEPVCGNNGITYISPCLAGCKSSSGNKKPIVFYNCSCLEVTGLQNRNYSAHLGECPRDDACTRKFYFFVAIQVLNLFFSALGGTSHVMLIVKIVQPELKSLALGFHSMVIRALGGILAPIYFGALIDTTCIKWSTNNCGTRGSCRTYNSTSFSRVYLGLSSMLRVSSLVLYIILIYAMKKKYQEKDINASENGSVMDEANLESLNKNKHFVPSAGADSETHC

B1: Solute carrier organic anion transporter family member 1B1 (Homo sapiens) (protein)
chain: T1 sequence (Q9Y6L6 whole entry)

Assays:
[1] = target: T1, Solute carrier organic anion transporter family member 1B1; assay: Inhibition of OATP1B1 (unknown origin) expressed in HEK293 cells using estrone-3-sulfate substrate; format: ADME, cell-based
[2] = target: T1, Solute carrier organic anion transporter family member 1B1; assay: Inhibition of OATP1B1 (unknown origin) expressed in HEK293 cells using estradiol-17beta-glucuronide substrate; format: ADME, cell-based
[3] = target: T1, Solute carrier organic anion transporter family member 1B1; assay: Inhibition of OATP1B1 (unknown origin) expressed in HEK293 cells using pitavastatin substrate; format: ADME, cell-based
[4] = substrate: O=C(O)C[C@H](O)C[C@H](O)/C=C/c1c(C2CC2)nc2ccccc2c1-c1ccc(F)cc1; assay: (§1) Drug uptake in HEK293 cells expressing OATP1B1 (unknown origin) assessed as OATP1B1-mediated drug transport; format: ADME, cell-based, Homo sapiens
[5] = substrate: C[C@]12CC[C@@H]3c4ccc(O)cc4CC[C@H]3[C@@H]1CC[C@@H]2O[C@@H]1O[C@H](C(=O)O)[C@@H](O)[C@H](O)[C@H]1O; assay: as §1; format: ADME, cell-based, Homo sapiens

| Molecule | IC50 [1] [µM] | IC50 [2] [µM] | IC50 [3] [µM] | Km [4] [µM] | Vmax [4] [µmol/min] | Km [5] [µM] | Vmax [5] [µmol/min] |
| --- | --- | --- | --- | --- | --- | --- | --- |
| Cc1ccc(C)c(OCCCC(C)(C)C(=O)O)c1 [GEMFIBROZIL] | 130 | 11 | 38 | – | – | – | – |
| CO[C@H]1/C=C/O[C@@]2(C)Oc3c(C)c(O)c4c(O)c(c(/C=N/N5CCN(C)CC5)c(O)c4c3C2=O)NC(=O)/C(C)=C\C=C\[C@H](C)[C@H](O)[C@@H](C)[C@@H](O)[C@@H](C)[C@H](OC(C)=O)[C@@H]1C [RIFAMPIN] | 2.3 | 0.3 | – | – | – | – | – |
| B1 | – | – | – | 4.8 | 0.00045 | 3.6 | 0.0002 |
